According to PubChem BioAssay (NCI):
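Dose response: 5 concentrations. Exposure: 48 h. Format: 96-well plates. Endpoint: linear interpolation; highest concentration if not reached. At the TGI there is no net growth.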

Assays:
Assay in all cases: NCI anticancer screen, dose series, 48 h
786-0 renal = system: 786-0 renal
A498 renal = system: A498 renal
A549 NSCLC = system: A549 NSCLC
ACHN renal = system: ACHN renal
CAKI-1 renal = system: CAKI-1 renal
CCRF-CEM leukemia = system: CCRF-CEM leukemia
COLO 205 colon = system: COLO 205 colon
DLD-1 colon = system: DLD-1 colon
DMS 114 small cell lung = system: DMS 114 small cell lung
DMS 273 small cell lung = system: DMS 273 small cell lung
EKVX NSCLC = system: EKVX NSCLC
HCC-2998 colon = system: HCC-2998 colon
HCT-15 colon = system: HCT-15 colon
HL-60(TB) leukemia = system: HL-60(TB) leukemia
HT29 colon = system: HT29 colon
IGROV1 ovarian = system: IGROV1 ovarian
K-562 leukemia = system: K-562 leukemia
KM12 colon = system: KM12 colon
KM20L2 colon = system: KM20L2 colon
LOX IMVI melanoma = system: LOX IMVI melanoma
LXFL 529 NSCLC = system: LXFL 529 NSCLC
M14 melanoma = system: M14 melanoma
MALME-3M melanoma = system: MALME-3M melanoma
MOLT-4 leukemia = system: MOLT-4 leukemia
NCI-H23 lung = system: NCI-H23 lung
NCI-H460 lung = system: NCI-H460 lung
NCI-H522 lung = system: NCI-H522 lung
OVCAR-4 ovarian = system: OVCAR-4 ovarian
OVCAR-5 ovarian = system: OVCAR-5 ovarian
OVCAR-8 ovarian = system: OVCAR-8 ovarian
RPMI-8226 leukemia = system: RPMI-8226 leukemia
RXF 393 renal = system: RXF 393 renal
RXF-631 renal = system: RXF-631 renal
SF-268 CNS = system: SF-268 CNS
SF-295 CNS = system: SF-295 CNS
SF-539 CNS = system: SF-539 CNS
SK-MEL-2 melanoma = system: SK-MEL-2 melanoma
SK-MEL-28 melanoma = system: SK-MEL-28 melanoma
SK-MEL-5 melanoma = system: SK-MEL-5 melanoma
SK-OV-3 ovarian = system: SK-OV-3 ovarian
SN12C renal = system: SN12C renal
SNB-19 CNS = system: SNB-19 CNS
SNB-75 CNS = system: SNB-75 CNS
SNB-78 CNS = system: SNB-78 CNS
SW-620 colon = system: SW-620 colon
TK-10 renal = system: TK-10 renal
U251 CNS = system: U251 CNS
UACC-257 melanoma = system: UACC-257 melanoma
UACC-62 melanoma = system: UACC-62 melanoma
UO-31 renal = system: UO-31 renal
XF 498 CNS = system: XF 498 CNS
HCT-116 colon = system: HCT-116 colon
HOP-62 NSCLC = system: HOP-62 NSCLC
HOP-92 NSCLC = system: HOP-92 NSCLC
M19-MEL melanoma = system: M19-MEL melanoma
OVCAR-3 ovarian = system: OVCAR-3 ovarian
NCI-H226 lung = system: NCI-H226 lung
SR leukemia = system: SR leukemia

## O=c1c(C(=Nc2ccccc2)c2ccccc2)c[nH]n1-c1ccccc1
786-0 renal
  TGI: > 100 µM
A498 renal
  TGI: > 100 µM
A549 NSCLC
  TGI: > 100 µM
ACHN renal
  TGI: > 100 µM
CAKI-1 renal
  TGI: > 100 µM
CCRF-CEM leukemia
  TGI: > 100 µM
COLO 205 colon
  TGI: > 100 µM
DLD-1 colon
  TGI: > 100 µM
DMS 114 small cell lung
  TGI: > 100 µM
DMS 273 small cell lung
  TGI: > 100 µM
EKVX NSCLC
  TGI: > 100 µM
HCC-2998 colon
  TGI: > 100 µM
HCT-15 colon
  TGI: > 100 µM
HL-60(TB) leukemia
  TGI: > 100 µM
HT29 colon
  TGI: > 100 µM
IGROV1 ovarian
  TGI: > 100 µM
K-562 leukemia
  TGI: > 100 µM
KM12 colon
  TGI: > 100 µM
KM20L2 colon
  TGI: > 100 µM
LOX IMVI melanoma
  TGI: > 100 µM
LXFL 529 NSCLC
  TGI: > 100 µM
M14 melanoma
  TGI: > 100 µM
MALME-3M melanoma
  TGI: > 100 µM
MOLT-4 leukemia
  TGI: > 100 µM
NCI-H23 lung
  TGI: > 100 µM
NCI-H460 lung
  TGI: > 100 µM
NCI-H522 lung
  TGI: > 100 µM
OVCAR-4 ovarian
  TGI: > 100 µM
OVCAR-5 ovarian
  TGI: > 100 µM
OVCAR-8 ovarian
  TGI: > 100 µM
RPMI-8226 leukemia
  TGI: > 100 µM
RXF 393 renal
  TGI: 72.8 µM
RXF-631 renal
  TGI: > 100 µM
SF-268 CNS
  TGI: > 100 µM
SF-295 CNS
  TGI: > 100 µM
SF-539 CNS
  TGI: > 100 µM
SK-MEL-2 melanoma
  TGI: > 100 µM
SK-MEL-28 melanoma
  TGI: > 100 µM
SK-MEL-5 melanoma
  TGI: > 100 µM
SK-OV-3 ovarian
  TGI: > 100 µM
SN12C renal
  TGI: > 100 µM
SNB-19 CNS
  TGI: > 100 µM
SNB-75 CNS
  TGI: > 100 µM
SNB-78 CNS
  TGI: > 100 µM
SW-620 colon
  TGI: > 100 µM
TK-10 renal
  TGI: > 100 µM
U251 CNS
  TGI: > 100 µM
UACC-257 melanoma
  TGI: > 100 µM
UACC-62 melanoma
  TGI: > 100 µM
UO-31 renal
  TGI: > 100 µM
XF 498 CNS
  TGI: > 100 µM

## COC(=O)CCC1(NS(=O)(=O)c2ccc(C)cc2)CCC(C(C)(C)C)CC1 (stereo not given)
786-0 renal
  TGI: 29 µM
A498 renal
  TGI: 28.8 µM
A549 NSCLC
  TGI: 73.4 µM
CAKI-1 renal
  TGI: 27.3 µM
CCRF-CEM leukemia
  TGI: 37 µM
COLO 205 colon
  TGI: 26.8 µM
DLD-1 colon
  TGI: 65.9 µM
DMS 114 small cell lung
  TGI: 20.3 µM
DMS 273 small cell lung
  TGI: 31.2 µM
HCC-2998 colon
  TGI: 30.3 µM
HCT-116 colon
  TGI: 22.2 µM
HL-60(TB) leukemia
  TGI: 11.8 µM
HOP-62 NSCLC
  TGI: 36.1 µM
HOP-92 NSCLC
  TGI: 27.1 µM
HT29 colon
  TGI: 31.8 µM
IGROV1 ovarian
  TGI: 41.7 µM
K-562 leukemia
  TGI: 33.7 µM
KM12 colon
  TGI: 44.7 µM
LOX IMVI melanoma
  TGI: 38 µM
LXFL 529 NSCLC
  TGI: 68.3 µM
M14 melanoma
  TGI: 33.7 µM
M19-MEL melanoma
  TGI: 25.2 µM
MALME-3M melanoma
  TGI: 35.4 µM
MOLT-4 leukemia
  TGI: 25.2 µM
NCI-H23 lung
  TGI: 29.2 µM
NCI-H460 lung
  TGI: 92 µM
NCI-H522 lung
  TGI: 21.3 µM
OVCAR-3 ovarian
  TGI: 23.2 µM
OVCAR-4 ovarian
  TGI: 32.1 µM
OVCAR-5 ovarian
  TGI: 32.8 µM
OVCAR-8 ovarian
  TGI: 40.7 µM
RPMI-8226 leukemia
  TGI: 21.4 µM
RXF-631 renal
  TGI: 45.2 µM
SF-295 CNS
  TGI: 26.5 µM
SF-539 CNS
  TGI: 26.2 µM
SK-MEL-2 melanoma
  TGI: 33.5 µM
SK-MEL-28 melanoma
  TGI: 25.3 µM
SK-MEL-5 melanoma
  TGI: 19.3 µM
SK-OV-3 ovarian
  TGI: > 100 µM
SN12C renal
  TGI: 28.5 µM
SNB-19 CNS
  TGI: 35.6 µM
SNB-75 CNS
  TGI: 41.2 µM
SNB-78 CNS
  TGI: 67.2 µM
SW-620 colon
  TGI: 37.3 µM
TK-10 renal
  TGI: 65.4 µM
U251 CNS
  TGI: 29 µM
UACC-257 melanoma
  TGI: 24.7 µM
UACC-62 melanoma
  TGI: 26.4 µM
UO-31 renal
  TGI: 16 µM
XF 498 CNS
  TGI: 30.7 µM

## O=S(=O)(c1ccccc1)C1CN2OC1(S(=O)(=O)c1ccccc1)CC21CCCCC1 (stereo not given)
786-0 renal
  TGI: > 100 µM
A549 NSCLC
  TGI: > 100 µM
ACHN renal
  TGI: > 100 µM
CAKI-1 renal
  TGI: > 100 µM
CCRF-CEM leukemia
  TGI: > 100 µM
COLO 205 colon
  TGI: > 100 µM
DLD-1 colon
  TGI: > 100 µM
DMS 114 small cell lung
  TGI: > 100 µM
DMS 273 small cell lung
  TGI: > 100 µM
EKVX NSCLC
  TGI: > 100 µM
HCC-2998 colon
  TGI: > 100 µM
HCT-116 colon
  TGI: > 100 µM
HCT-15 colon
  TGI: > 100 µM
HL-60(TB) leukemia
  TGI: > 100 µM
HOP-62 NSCLC
  TGI: > 100 µM
HT29 colon
  TGI: > 100 µM
IGROV1 ovarian
  TGI: > 100 µM
K-562 leukemia
  TGI: > 100 µM
KM12 colon
  TGI: > 100 µM
KM20L2 colon
  TGI: > 100 µM
LOX IMVI melanoma
  TGI: > 100 µM
LXFL 529 NSCLC
  TGI: > 100 µM
M14 melanoma
  TGI: > 100 µM
M19-MEL melanoma
  TGI: > 100 µM
MALME-3M melanoma
  TGI: > 100 µM
MOLT-4 leukemia
  TGI: > 100 µM
NCI-H226 lung
  TGI: > 100 µM
NCI-H23 lung
  TGI: > 100 µM
NCI-H460 lung
  TGI: > 100 µM
NCI-H522 lung
  TGI: > 100 µM
OVCAR-3 ovarian
  TGI: > 100 µM
OVCAR-4 ovarian
  TGI: > 100 µM
OVCAR-5 ovarian
  TGI: > 100 µM
OVCAR-8 ovarian
  TGI: > 100 µM
RPMI-8226 leukemia
  TGI: > 100 µM
RXF 393 renal
  TGI: > 100 µM
RXF-631 renal
  TGI: > 100 µM
SF-268 CNS
  TGI: > 100 µM
SF-295 CNS
  TGI: > 100 µM
SF-539 CNS
  TGI: > 100 µM
SK-MEL-2 melanoma
  TGI: > 100 µM
SK-MEL-28 melanoma
  TGI: > 100 µM
SK-OV-3 ovarian
  TGI: > 100 µM
SN12C renal
  TGI: > 100 µM
SNB-19 CNS
  TGI: > 100 µM
SNB-75 CNS
  TGI: > 100 µM
SR leukemia
  TGI: > 100 µM
SW-620 colon
  TGI: > 100 µM
TK-10 renal
  TGI: > 100 µM
U251 CNS
  TGI: > 100 µM
UACC-257 melanoma
  TGI: > 100 µM
UACC-62 melanoma
  TGI: > 100 µM
UO-31 renal
  TGI: > 100 µM
XF 498 CNS
  TGI: > 100 µM
